Each structure is given as a SMILES string.

The values below come from US10392345B2, “Crystal of salt of novel 3-azabicyclo[3.1.0]hexane derivative and pharmaceutical use thereof” (SANWA KAGAKU KENKYUSHO CO., LTD., priority 2015, dated 2019).

This data set is described as follows: Mice serum protein binding assay (equilibrium dialysis, RED Device). It is filed as in vitro ADME. The conditions noted are these: CD-1 (ICR), mouse, pH 7.4, murine serum, 37° C., 5 to 6 hours, read-out: Protein binding rate (converted). The method, then: The protein binding rate was determined by equilibrium dialysis method using the RED Device (8K MWCO, Rapid Equilibrium Dialysis Device, Thermo Scientific). The test substances that had been dissolved in DMSO were added to the serum that was collected from Cr1: CD-1 (ICR) mice fasted overnight, so that the final concentration of DMSO became 1% (v/v). The serum to which the test substance had been added was added to the inner side of the dialysis membrane of the RED Device, and PBS (phosphate buffer saline, pH 7.4) containing 0.01% (v/v) Tween 80 was added to the outside in accordance with the method for using the RED Device and incubated at 37° C. for 5 to 6 hours with ellipsoidal shaking at 100 rpm so that the concentration of the unbound test substance in the serum and the concentration of the test substance in the PBS reached equilibrium. […] The proteins were removed from the measurement sample by adding acetonitrile in an amount of 5-fold or more of the amount of the internal standard substance and the serum sample, and the supernatants were measured by LC/MS/MS (liquid chromatograph-triple quadrupole mass spectrometer). The serum samples were measured after suitably diluting with distilled water as necessary. […]
However, in the case when the concentration in the sample was calculated by using a calibration curve, A and B were as follows.

With `CC[C@]1(c2cccc(NS(C)(=O)=O)c2)[C@@H]2CN(CC3(O)Cc4ccccc4C3)C[C@@H]21` [Comparative Compound 1, N-(3-{(1R,5S,6r)-6-ethyl-3-[(2-hydroxy-2,3-dihydro-1H-inden-2-yl)methyl]-3-azabicyclo[3.1.0]hexan-6-yl}phenyl)methanesulfonamide methanesulfonate], the fraction unbound was 0.068.
